25 molecules from US5716982A, “Retinoids and methods of use of same” (priority 1995, dated 1998) can be followed below.

Molecules are shown by their SMILES. Where two headings read alike, the source gives them in different places. Where only a bound is given, the exact number is not on record here.

Assay [1] concerns Human promyelocytic leukemia HL-60 cells. Briefly: Cell differentiation of HL-60 cells, nitroblue tetrazolium (NBT) reduction. As to conditions: for NBT (+) %: HL-60; for EC50: Homo sapiens. The class given is cell-based. The protocol: Human promyelocytic leukemia HL-60 cells were cultured in RPMI-1640 medium supplemented by 10% heat-inactivated calf serum and 100 U/ml of penicillin plus 100 μg/ml of streptomycin. The flasks containing cells and medium were incubated in an incubator with 5% CO2 at 37° C. Log phase cells were seeded into the medium at a concentration of 1.2×10^5to 1.4×10^5 cells per ml and cultured in flasks containing 5 ml of medium. Each group consisted of three flasks. Different concentrations of coumarin-retinoids were added. At intervals following the addition of coumarin-retinoids to the cultures, a small portion of cells was removed and live cells were counted under a light microscope using a dye-exclusionmethod with trypan blue. Cell differentiation was judged in terms of morphology and nitroblue tetrazolium (NBT) reduction.
For a determination of NBT reducing activity, a portion of the coumarin-retinoid-treated cells was removed at intervals following treatment and centrifuged. After centrifugation, 0.5 ml of 0.1% NBT (containing 100 ng TPA) was added to each tube. The contents of the test tubes were then incubated for 1 hour at 37° C. Cell smears were prepared from the cell sediment and stained using the Wright-Giemsa technique. For each smear prepared, 200 cells were isolated for examination under a light microscope with an oil immersion lens. Cells stained with blue-black granules were considered NBT-positive cells. The 50% differentiation or effective concentration (ED50 or EC50) is shown in terms of molar (M) concentration of the […] tested.
(§1) The protocols of Examples 14 and 21 were used, for the NBT and MTT assays, respectively.

Assay [2] concerns HL-60 cells. The assay is described as follows: MTT assay in HL-60 cells. Format: cell-based, human. As to conditions: for inhibition at 10 µM: 10^-5 M; for inhibition at 10 µM / inhibition at 1 µM / inhibition at 0.1 µM / inhibition at 0.01 µM: HL-60; for inhibition at 1 µM: 10^-6 M; for inhibition at 0.1 µM: 10^-7 M; for inhibition at 0.01 µM: 10^-8 M. How it is done: Human cancer cell lines (KB, A2780, MCF-7, HL-60, A549) were used. For a monolayer culture, 0.5 ml of trypsin solution ([…]) was added to the flasks for digestion. Microtiter plates (96 well) were used for the cell culture and 200 μl of cell suspension (1200 tumor cells) were placed in each well and incubated at 37° C. for 24 hours. Following the addition of the test compound, the control and treated flasks were placed in a CO2 incubator for 5 day culture. For the MTT assay, 200 μl of MTT solution (5 mg in 10 ml of phosphate buffer) plus the medium were added and incubated for another 4 hours. Following incubation, the supernatant was discarded and 200 μl of DMSO was added to each well. With a mild agitation the OD values were determined by the MR 700 Elisa at 570 nm (reference wavelength was 450 nm). The ED50 of the compound and tumor cell survival rate [formula] as percent inhibition were calculated.
as §1
(In general: Formazan colour is commonly taken as a measure of viable cells.)

The mark [3] stands for this setting: NBT reduction, 50% differentiation, HL-60 (Table 2), read-out: EC50.
[4] abbreviates: Homo sapiens, 120 h, MTT, HL-60 (Table 12), read-out: ED50 (the source's name).
The mark [5] stands for this setting: Homo sapiens, 120 h, HL-60 (Table 15), read-out: MTT ED50.
[6] abbreviates: HL-60 (Table 15), read-out: NBT ED50.

`CC(=O)c1cc2c(C)cc(OC(=O)/C=C(C)/C=C/C=C(C)/C=C/C3=C(C)CCCC3(C)C)cc2oc1=O` [Compound I-2]: in assay [1] (10^-5 M), the “NBT (+) %” value is listed as 38%. In assay [1] (setting [3]), the EC50 was 2000 nM.

`CC(=O)c1cc2ccc(OC(=O)/C=C(C)/C=C/C=C(C)/C=C/C3=C(C)CCCC3(C)C)c(C)c2oc1=O` [Compound I-3]: the EC50 in assay [1] (setting [3]) came to 800 nM.

As for `CC(=O)c1cc2c(C(=O)O)cc(OC(=O)/C=C(C)/C=C/C=C(C)/C=C/C3=C(C)CCCC3(C)C)cc2oc1=O` [Compound I-4, 3-acetyl-5-carboxy-7-retinoyloxy coumarin], in assay [1] (setting [3]), the EC50 was found to be 70 nM.

For `CC(=O)c1cc2c(COC(=O)/C=C(C)/C=C/C=C(C)/C=C/C3=C(C)CCCC3(C)C)cc(OC(=O)/C=C(C)/C=C/C=C(C)/C=C/C3=C(C)CCCC3(C)C)cc2oc1=O` [Compound I-7], the EC50 in assay [1] (setting [3]) worked out at 750 nM.

For orientation: inhibition means how much of the control response was suppressed. Higher therefore signals a response far below the control. For `CC(=O)c1cc2c(OC(=O)/C=C(C)/C=C/C=C(C)/C=C/C3=C(C)CCCC3(C)C)c(C(=O)O)ccc2oc1=O` [Compound I-8], in assay [1] (setting [3]), the EC50 stood at 59 nM. For the same molecule, in assay [2] (setting [4]), the IC50 stood at 100 nM. In assay [2] (Homo sapiens, MTT), testing at 10 µM gave an inhibition of 63.9 ± 2.9%, at 1 µM the inhibition was 54 ± 1.9%, the inhibition at 0.1 µM stood at 50.5 ± 0.9% and the inhibition at 0.01 µM is 29.7 ± 1.4%.

Take `CCOC(=O)c1cc(OC(=O)/C=C(C)/C=C/C=C(C)/C=C/C2=C(C)CCCC2(C)C)cc2oc(=O)c(C(C)=O)cc12` [Compound I-11, 3-acetyl-5-ethoxycarbyl-7-retinoyloxy-coumarin]: the EC50 in assay [1] (setting [3]) came to 3000 nM.

On to `CCCCCCCCCCCCOC(=O)c1cc(OC(=O)/C=C(C)/C=C/C=C(C)/C=C/C2=C(C)CCCC2(C)C)c(OC(=O)/C=C(C)/C=C/C=C(C)/C=C/C2=C(C)CCCC2(C)C)c2oc(=O)c(C(=O)OCC)cc12` [Compound I-12], for which the EC50 in assay [1] (setting [3]) was 10 nM.

As to `CCc1cc2cc(C(C)=O)c(=O)oc2cc1OC(=O)/C=C(C)/C=C/C=C(C)/C=C/C1=C(C)CCCC1(C)C` [Compound I-13], the IC50 in assay [2] (setting [4]) is more than 10000 nM. In assay [2] (Homo sapiens, MTT), testing at 10 µM gave an inhibition of 5.5 ± 3.9%, at 1 µM the inhibition was 4.3 ± 6.1% and 0.1 µM produced 3.5 ± 3.9% inhibition.

`CCCCCCc1cc2cc(C(C)=O)c(=O)oc2c(C)c1OC(=O)/C=C(C)/C=C/C=C(C)/C=C/C1=C(C)CCCC1(C)C` [Compound I-14]: the IC50 in assay [2] (setting [4]) is 9000 nM. For the same molecule, in assay [2] (Homo sapiens, MTT), the inhibition at 10 µM is 52.6 ± 1.3%, at 1 µM the inhibition was 30 ± 1.4% and the inhibition at 0.1 µM came to 10.4 ± 2.4%.

With `CCOC(=O)c1cc2ccc(OC(=O)/C=C(C)/C=C/C=C(C)/C=C/C3=C(C)CCCC3(C)C)c(C)c2oc1=O` [Compound I-15], the EC50 in assay [1] (setting [3]) turned out to be 260 nM. In addition, the IC50 in assay [2] (setting [4]) is 900 nM. Further, in assay [2] (Homo sapiens, MTT), 10 µM produced 54.5 ± 2.8% inhibition, the inhibition at 1 µM came to 48.8 ± 1.3%, the inhibition at 0.1 µM stood at 34.6% and at 0.01 µM the inhibition was 16.2 ± 2.4%.

As for `CCOC(=O)c1cc2ccc(OC(=O)/C=C(C)/C=C/C=C(C)/C=C/C3=C(C)CCCC3(C)C)cc2oc1=O` [Compound I-17], the EC50 in assay [1] (setting [3]) is 1000 nM.

As to `CCOC(=O)c1cc2cc(Cl)c(OC(=O)/C=C(C)/C=C/C=C(C)/C=C/C3=C(C)CCCC3(C)C)cc2oc1=O` [Compound I-18], in assay [1] (setting [3]), the EC50 is 10000 nM.

For the molecule `CCOC(=O)c1cc2c(C(=O)O)cc(OC(=O)/C=C(C)/C=C/C=C(C)/C=C/C3=C(C)CCCC3(C)C)cc2oc1=O` [Compound I-19], the “NBT (+) %” value was determined as 84% in assay [1] (10^-4 M), 5% in assay [1] (10^-5 M) and 92% in assay [1] (10^-7 M). Also, the EC50 in assay [1] (setting [3]) worked out at 9000 nM.

Turning to `CCOC(=O)c1cc2c(OC(=O)/C=C(C)/C=C/C=C(C)/C=C/C3=C(C)CCCC3(C)C)cc(OC(=O)/C=C(C)/C=C/C=C(C)/C=C/C3=C(C)CCCC3(C)C)cc2oc1=O` [Compound I-21], in assay [1] (setting [3]), the EC50 worked out at 250 nM. For the same molecule, in assay [2] (setting [4]), the IC50 stood at 1000 nM. In assay [2] (Homo sapiens, MTT), 10 µM produced 61.2 ± 2.4% inhibition, the inhibition at 1 µM was 49.9 ± 2.5%, the inhibition at 0.1 µM is 32.5 ± 1.1% and the inhibition at 0.01 µM was 21.8 ± 3.1%.

With `CC1=C(/C=C/C(C)=C/C=C/C(C)=C/C(=O)Oc2cc(C(=O)O)c3cc(C(N)=O)c(=O)oc3c2)C(C)(C)CCC1` [Compound I-26], in assay [1] (setting [3]), the EC50 worked out at 80 nM. Further, in assay [2] (setting [4]), the IC50 amounted to 900 nM. For the same molecule, in assay [2] (Homo sapiens, MTT), testing at 10 µM gave an inhibition of 68.7 ± 0.2%, the inhibition at 1 µM amounted to 52.6 ± 0.5%, the inhibition at 0.1 µM worked out at 43.8 ± 1.3% and 0.01 µM produced 9.4 ± 3.7% inhibition.

With `CC1=C(/C=C/C(C)=C/C=C/C(C)=C/C(=O)Oc2cc3oc(=O)c(C(N)=O)cc3cc2Cl)C(C)(C)CCC1` [Compound I-27], the EC50 in assay [1] (setting [3]) was found to be 550 nM.

`CC1=C(/C=C/C(C)=C/C=C/C(C)=C/C(=O)Oc2cc(=O)oc3ccc(C(C)(C)C)cc23)C(C)(C)CCC1` [Compound I-28, 4-retinoyloxy-6-t-butyl-coumarin]: in assay [2] (setting [5]), the IC50 is more than 10000 nM.

As to `CC1=C(/C=C/C(C)=C/C=C/C(C)=C/C(=O)Oc2cc(=O)oc3c(C)cccc23)C(C)(C)CCC1` [Compound I-29], the EC50 in assay [1] (setting [6]) was more than 10000 nM. For the same molecule, the IC50 in assay [2] (setting [5]) is 1900 nM.

With `CC1=C(/C=C/C(C)=C/C=C/C(C)=C/C(=O)Oc2ccc3c(C)cc(=O)oc3c2C)C(C)(C)CCC1` [Compound I-30], the IC50 in assay [2] (setting [5]) is more than 10000 nM.

On to `CCc1cc2c(C)cc(=O)oc2cc1OC(=O)/C=C(C)/C=C/C=C(C)/C=C/C1=C(C)CCCC1(C)C` [Compound I-31, 4-methyl-6-ethyl-7-retinoyloxy-coumarin], for which the IC50 in assay [2] (setting [5]) was more than 10000 nM.

`CC1=C(/C=C/C(C)=C/C=C/C(C)=C/C(=O)Oc2ccc3c(C)cc(=O)oc3c2)C(C)(C)CCC1` [Compound I-32, 4-methyl-7-retinoyloxy-coumarin]: in assay [2] (HL-60 (Table 15), 7200 min, read-out: MTT ED50), the IC50 was determined as 11000 nM.

Take `CC1=C(/C=C/C(C)=C/C=C/C(C)=C/C(=O)Oc2cc(OC(=O)/C=C(C)/C=C/C=C(C)/C=C/C3=C(C)CCCC3(C)C)c3c(C)cc(=O)oc3c2)C(C)(C)CCC1` [Compound I-33, 4-methyl-5,7-diretinoyloxy-coumarin]: the EC50 in assay [1] (setting [6]) was more than 10000 nM. For the same molecule, the IC50 in assay [2] (setting [5]) is 3200 nM.

Consider `CCCCCCc1cc2c(C)cc(=O)oc2cc1OC(=O)/C=C(C)/C=C/C=C(C)/C=C/C1=C(C)CCCC1(C)C` [Compound I-34, 4-methyl-6-hexyl-7-retinoyloxy-coumar in], for which the IC50 in assay [2] (setting [5]) was more than 10000 nM.

Regarding `CC1=C(/C=C/C(C)=C/C=C/C(C)=C/C(=O)Oc2cc(=O)oc3ccc(C)cc23)C(C)(C)CCC1` [Compound I-35, 4-retinoyloxy-6-methyl-coumarin], the EC50 in assay [1] (setting [6]) stood at 6700 nM. The IC50 in assay [2] (setting [5]) came out at 2600 nM.

Regarding `CC1=C(/C=C/C(C)=C/C=C/C(C)=C/C(=O)Oc2ccc3c(C)cc(=O)oc3c2OC(=O)/C=C(C)/C=C/C=C(C)/C=C/C2=C(C)CCCC2(C)C)C(C)(C)CCC1` [Compound I-36, 4-methyl-7,8-diretinoyloxy-coumarin], in assay [1] (setting [6]), the EC50 is more than 10000 nM. Besides, the IC50 in assay [2] (setting [5]) stood at 3200 nM.
